According to ChEMBL document CHEMBL1148834, “A novel diketo phosphonic acid that exhibits specific, strand-transfer inhibition of HIV integrase and anti-HIV activity” (Bioorg Med Chem Lett, 2007):
pIC50: −log10 of the molar value.

Key:
[1] = test system: Human immunodeficiency virus 1; assay: Antiviral activity against HIV1 TEK1 in PBMC; format: functional, organism-based; settings: Human immunodeficiency virus 1, TEK1
[2] = test system: Human immunodeficiency virus 1; assay: Antiviral activity against HIV1 NL4-3 in PBMC; format: functional, organism-based; settings: Human immunodeficiency virus 1, NL4-3
[3] = Cytotoxicity against PBMC cells; format: cell-based; settings: human
[4] = Therapeutic index, ratio of CC50 for PBMC to IC50 for HIV1 TEK1; settings: read-out: Ratio CC50/IC50
[5] = Therapeutic index, ratio of CC50 for PBMC to IC50 for HIV1 NL4-3; settings: read-out: Ratio CC50/IC50
[6] = Inhibition of HIV integrase 3'-processing activity by magnesium chloride-based assay; set-up: species or system Human immunodeficiency virus
[7] = Inhibition of HIV integrase strand transfer activity by magnesium chloride-based assay; set-up: species or system Human immunodeficiency virus

| pIC50 [1] | pIC50 [2] | pIC50 [6] | pIC50 [7] | Compound | CC50 [3] | selectivity ratio [4] | selectivity ratio [5] |
| --- | --- | --- | --- | --- | --- | --- | --- |
| 5.09 | 4.93 | – | – | O=C(/C=C(\O)P(=O)(O)O)c1cc(OCc2ccccc2)cc(OCc2ccccc2)c1 | 46.9 µM | 5.8 | 4 |
| 5.40 | 5.49 | < 3.48 | 4.69 | O=C(/C=C(\O)P(=O)(O)O)c1cn(Cc2ccccc2)c(=O)n(Cc2ccccc2)c1=O | > 200 µM | > 50 | > 62 |
